{"source": "patent US20070232813A1", "about": "“Substituted Cyclohexadienals - Syntheses and Applications” (priority 2006, published 2007)", "origin": "cited, not measured here", "key": {"Sulfitobacter sp.": {"tested_on": "Sulfitobacter sp.", "settings": "at 100 μg, agar diffusion assay"}, "Roseobacter sp.": {"tested_on": "Roseobacter sp.", "settings": "at 100 μg, agar diffusion assay"}}}
{"compound": "CC(C)=CCCC1=CC=C(C=O)C(C)(CCC=C(C)C)C1", "note": "(centres unmarked) [citral dimer B, 6-Methyl-4,6-bis-(4-methyl-pent-3-enyl)-cyclohexa-1,3-dienecarbaldehyde]", "values": [{"measurement": "inhibition (anti-bacterial activity against Sulfitobacter sp.)", "setting": "Sulfitobacter sp.", "value": 1.0, "unit": "cm"}, {"measurement": "inhibition (anti-bacterial activity against Roseobacter sp.)", "setting": "Roseobacter sp.", "value": 0.5, "unit": "cm"}]}
